The record followed here is ChEMBL document CHEMBL2074431, “The novel anticancer drug KRN5500 interacts with, but is hardly transported by, human P-glycoprotein” (Jpn J Cancer Res, 2000).

The data set deals with ATP-dependent translocase ABCB1 (Homo sapiens, UniProt P08183). Description: TP_TRANSPORTER: inhibition of Azidopine photoaffinity labelling (Azidopine: 0.4 uM, KRN5500: 400 uM) in membrane fraction from MDR1-expressing LLC-PK1 cell. It counts as functional, cell membranes. Particulars: pig, llc-pk1, 400 µM.
Sequence of ATP-dependent translocase ABCB1 (P08183 whole entry): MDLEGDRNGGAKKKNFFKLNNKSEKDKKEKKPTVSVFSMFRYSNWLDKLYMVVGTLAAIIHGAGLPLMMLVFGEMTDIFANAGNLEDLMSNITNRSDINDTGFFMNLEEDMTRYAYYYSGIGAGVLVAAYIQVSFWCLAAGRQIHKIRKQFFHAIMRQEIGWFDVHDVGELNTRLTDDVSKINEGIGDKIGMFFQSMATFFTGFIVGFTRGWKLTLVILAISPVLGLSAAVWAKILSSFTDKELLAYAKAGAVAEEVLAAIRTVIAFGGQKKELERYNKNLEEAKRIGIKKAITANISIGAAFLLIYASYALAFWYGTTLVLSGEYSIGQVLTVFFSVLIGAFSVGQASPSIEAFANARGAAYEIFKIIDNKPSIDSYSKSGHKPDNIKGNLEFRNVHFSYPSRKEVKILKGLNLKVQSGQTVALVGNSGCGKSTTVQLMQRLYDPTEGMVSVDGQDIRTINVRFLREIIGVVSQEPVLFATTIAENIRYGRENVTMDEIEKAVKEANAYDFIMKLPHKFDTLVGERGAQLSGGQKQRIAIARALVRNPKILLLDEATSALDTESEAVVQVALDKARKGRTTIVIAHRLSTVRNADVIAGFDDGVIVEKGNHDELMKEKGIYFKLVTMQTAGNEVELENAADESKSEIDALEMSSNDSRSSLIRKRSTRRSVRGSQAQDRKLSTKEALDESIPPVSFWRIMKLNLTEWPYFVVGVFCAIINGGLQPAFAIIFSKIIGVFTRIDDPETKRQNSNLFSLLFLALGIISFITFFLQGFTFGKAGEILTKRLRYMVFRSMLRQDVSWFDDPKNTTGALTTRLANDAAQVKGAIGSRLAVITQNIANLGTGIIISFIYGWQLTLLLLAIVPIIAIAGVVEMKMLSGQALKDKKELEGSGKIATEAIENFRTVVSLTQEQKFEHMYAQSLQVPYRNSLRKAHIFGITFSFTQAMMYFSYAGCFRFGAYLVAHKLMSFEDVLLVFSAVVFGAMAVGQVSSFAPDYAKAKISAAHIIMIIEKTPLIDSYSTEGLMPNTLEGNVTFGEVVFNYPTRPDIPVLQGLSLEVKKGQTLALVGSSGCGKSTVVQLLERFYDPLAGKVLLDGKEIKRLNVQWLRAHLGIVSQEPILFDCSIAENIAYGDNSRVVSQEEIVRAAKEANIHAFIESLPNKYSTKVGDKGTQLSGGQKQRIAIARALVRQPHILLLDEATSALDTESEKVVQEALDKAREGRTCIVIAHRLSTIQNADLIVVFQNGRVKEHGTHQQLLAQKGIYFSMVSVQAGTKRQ

As for `CCCCCCCCC/C=C/C=C/C(=O)NCC(=O)N[C@@H]1[C@@H](O)[C@@H](O)[C@@H](Nc2ncnc3[nH]cnc23)O[C@H]1[C@@H](O)CO`, the Activity result is “inhibitor [+]”.
